Assay results taken from article PMC5034696 (Drug Metabolism and Disposition, 2016).

How the values were obtained:
human liver microsomes [1] = assay type: in vitro ADME; settings: HLM, p < 0.05; for S,S-OH-bupropion formation higher than control: 1 μM S-bupropion
human liver microsomes [2] = assay type: in vitro ADME; settings: HLM
CYP2C19 = settings: vs extensive metabolizers; ref Zhu et al., 2014; cited from earlier work
[3] = in vivo, humans; ref Turpeinen et al., 2005; cited from earlier work

## CCC1(c2ccccc2)NC(=O)N(Cc2ccccc2)C1=O (single isomer, unassigned; (+)) [N-benzylnirvanol, (+)-N-3-benzylnirvanol]
Human liver microsomes [1]; 1 μM R-bupropion
  R,R-OH-bupropion formation higher than control: 11%
Human liver microsomes [1]
  S,S-OH-bupropion formation higher than control: 20%
Human liver microsomes [2]; 1 µM R-bupropion
  inhibition of 4′-OH-bupropion formation from R-bupropion: 84%
Human liver microsomes [2]; 1 µM S-bupropion
  inhibition of 4′-OH-bupropion formation from S-bupropion: 82%

## CC(NC(C)(C)C)C(=O)c1cccc(Cl)c1 (stereo not shown) [bupropion]
CYP2C19
  increase in bupropion AUC in CYP2C19 intermediate metabolizers: 13%
Chiral inversion; scaled to blood volume (5 l)
  estimated in vivo isomerization CL: 2.7 L/h
Chiral inversion; scaled to total body water (42 l)
  estimated in vivo isomerization CL: 22.7 L/h

## COC(=O)[C@H](c1ccccc1Cl)N1CCc2sccc2C1 [clopidogrel]
[3]
  increase in bupropion AUC: 36%

## CC(C)(O)c1ccccc1CC[C@@H](SCC1(CC(=O)O)CC1)c1cccc(/C=C/c2ccc3ccc(Cl)cc3n2)c1 [montelukast]
Human liver microsomes [1]
  S,S-OH-bupropion formation higher than control: 15%

## Clc1ccccc1CN1CCc2sccc2C1 [ticlopidine]
[3]
  increase in bupropion AUC: 61%
